Experimental data: PubChem BioAssay (NCI)
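Dose response: 5 concentrations. Exposure: 48 h. Format: 96-well plates. Endpoint: linear interpolation; highest concentration if not reached. TGI: concentration producing complete growth inhibition.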

Legend:
Assay in all cases: NCI anticancer screen, dose series, 48 h
CCRF-CEM leukemia = tested on: CCRF-CEM leukemia
A549 NSCLC = tested on: A549 NSCLC
T-47D breast = tested on: T-47D breast
NCI-H23 lung = tested on: NCI-H23 lung
EKVX NSCLC = tested on: EKVX NSCLC
MCF7 breast = tested on: MCF7 breast
DU-145 prostate = tested on: DU-145 prostate
A498 renal = tested on: A498 renal
MDA-MB-231 breast = tested on: MDA-MB-231 breast
786-0 renal = tested on: 786-0 renal
NCI-H522 lung = tested on: NCI-H522 lung
SK-MEL-5 melanoma = tested on: SK-MEL-5 melanoma
SK-MEL-2 melanoma = tested on: SK-MEL-2 melanoma
U251 CNS = tested on: U251 CNS
MALME-3M melanoma = tested on: MALME-3M melanoma
HCT-116 colon = tested on: HCT-116 colon
SF-295 CNS = tested on: SF-295 CNS
MOLT-4 leukemia = tested on: MOLT-4 leukemia
ACHN renal = tested on: ACHN renal
SW-620 colon = tested on: SW-620 colon
MDA-N = tested on: MDA-N
RXF 393 renal = tested on: RXF 393 renal
UACC-257 melanoma = tested on: UACC-257 melanoma
RPMI-8226 leukemia = tested on: RPMI-8226 leukemia
OVCAR-8 ovarian = tested on: OVCAR-8 ovarian
LOX IMVI melanoma = tested on: LOX IMVI melanoma
HCC-2998 colon = tested on: HCC-2998 colon
HOP-62 NSCLC = tested on: HOP-62 NSCLC
IGROV1 ovarian = tested on: IGROV1 ovarian
HL-60(TB) leukemia = tested on: HL-60(TB) leukemia
SK-MEL-28 melanoma = tested on: SK-MEL-28 melanoma
SNB-19 CNS = tested on: SNB-19 CNS
UO-31 renal = tested on: UO-31 renal
PC-3 prostate = tested on: PC-3 prostate
TK-10 renal = tested on: TK-10 renal
UACC-62 melanoma = tested on: UACC-62 melanoma
SNB-75 CNS = tested on: SNB-75 CNS
M14 melanoma = tested on: M14 melanoma
SF-539 CNS = tested on: SF-539 CNS
HOP-92 NSCLC = tested on: HOP-92 NSCLC
NCI-H226 lung = tested on: NCI-H226 lung
KM12 colon = tested on: KM12 colon
OVCAR-3 ovarian = tested on: OVCAR-3 ovarian
NCI/ADR-RES ovarian = tested on: NCI/ADR-RES ovarian
COLO 205 colon = tested on: COLO 205 colon
HCT-15 colon = tested on: HCT-15 colon
SN12C renal = tested on: SN12C renal
K-562 leukemia = tested on: K-562 leukemia
CAKI-1 renal = tested on: CAKI-1 renal
OVCAR-4 ovarian = tested on: OVCAR-4 ovarian
MDA-MB-435 = tested on: MDA-MB-435
SK-OV-3 ovarian = tested on: SK-OV-3 ovarian
SR leukemia = tested on: SR leukemia
HT29 colon = tested on: HT29 colon
OVCAR-5 ovarian = tested on: OVCAR-5 ovarian
SF-268 CNS = tested on: SF-268 CNS
HS 578T breast = tested on: HS 578T breast
NCI-H460 lung = tested on: NCI-H460 lung

Measured: TGI

O=NNc1c[nH]c(=O)[nH]c1=O
not listed: SR leukemia | HT29 colon | OVCAR-5 ovarian | SF-268 CNS | HS 578T breast | NCI-H460 lung
> 100 µM: all other assays above

CC(C)=C=CP(=O)(O)c1ccccc1
not listed: CCRF-CEM leukemia | MDA-MB-231 breast | MOLT-4 leukemia | RXF 393 renal | RPMI-8226 leukemia | UO-31 renal
> 100 µM: all other assays above
